Data published in US11161852B1 (Halia Therapeutics, Inc., priority 2020, dated 2021).

What was measured:
[1] = biological target: full-length recombinant human NEK7 (Homo sapiens (Human), UniProt Q8TDX7); test: NEK7 Enzymatic Assay ([33P]-ATP, casein substrate); type: biochemical
Procedure: Casein substrate (from bovine milk, hydrolyzed and partially dephosphorylated mixture of α, β and a caseins, obtained from Sigma Aldrich, catalogue #C4765, diluted in distilled water to a final concentration of 1 mg/mL) and full-length recombinant human NEK7 (expressed by baculovirus in Sf9 insect cells using a N-terminal GST tag, obtained from SignalChem, catalogue #N09-10G, 0.1 μg/μL) were mixed in assay buffer (20 mM Hepes pH 7.5, 10 mM MgCl2, 1 mM EGTA, 0.02% Brij35, 0.02 mg/ml BSA, 0.1 mM Na3VO4, 2 mM DTT, 1% DMSO). Compounds of interest (serial 3-fold dilution in DMSO from 10 μM to 0.5 nM) or vehicle (1% DMSO) were dispensed into the kinase reaction mixture by Acoustic technology (Echo550; nanoliter range). After incubation at room temperature for 20 minutes, the kinase reaction was initiated by addition of [^33P]-ATP (specific activity […]) and the mixture was incubated at room temperature for 2 hours. The reaction was then stopped by spotting the reaction mixture on strips of phosphocellulose P81 paper. Following washing, the radioactivity of the P81 paper was measured and kinase activity data were expressed as the percent remaining kinase activity in test samples compared to vehicle reactions. IC50 values and curve fits were obtained using Prism (GraphPad Software).

[2] = system: IL-1β release from THP-1 cells; test: IL-1β Release Assay (PMA-differentiated THP-1 cells, LPS + nigericin); type: cell-based; details: Homo sapiens, 250 ng/mL LPS, 20 μM nigericin
Procedure: Approximately 1.5 million THP-1 cells were plated in each well of a 6-well TC plate and incubated with 40 nM PMA in RPMI (10% FBS, 1% Penstrep) for 24 hours. The media was then removed and cells were rested in RPMI (10% FBS, 1% Penstrep) for 24 hours after which time the media was removed and cells were pre-treated for 2 hours with various concentrations of compounds of interest (typically serial 3-fold dilution in RPMI+5% FBS, concentrations ranging from 1 μM to 0.5 nM) in RPMI (5% FBS). The media was again removed and cells were incubated with 250 ng/mL LPS and compounds of interest (concentrations as above) in RMPI (5% FBS) for 2 hours. The media was removed for a last time and cells were incubated with 20 μM nigericin and compounds of interest (concentrations as above) in Opti-MEM for 30 minutes. Cell media was then collected and the amount of cleaved IL-1β was determined using a JESS instrument (Protein Simple) and standard protocols. Cleaved Il-1β antibody was obtained from Cell Signaling (catalogue #83186S) and was used at 1:20 dilution in antibody diluent 2. Protein Simple 1× anti-Rabbit HRP secondary antibody was used along with Protein Simple luminol and peroxide for chemiluminescent detection. Primary antibody incubation time was increased from 30 minutes to 60 minutes.

Sequence of full-length recombinant human NEK7 (Q8TDX7 whole entry): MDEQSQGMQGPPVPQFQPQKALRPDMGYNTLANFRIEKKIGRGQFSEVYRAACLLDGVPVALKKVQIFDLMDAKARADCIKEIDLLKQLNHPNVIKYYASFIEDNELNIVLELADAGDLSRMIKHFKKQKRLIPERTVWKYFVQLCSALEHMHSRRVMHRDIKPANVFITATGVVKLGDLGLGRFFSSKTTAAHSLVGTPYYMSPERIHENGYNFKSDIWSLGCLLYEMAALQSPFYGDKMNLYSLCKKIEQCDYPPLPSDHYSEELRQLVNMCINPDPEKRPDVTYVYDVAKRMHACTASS

IC50 [1] [nM] | IC50 [2] [nM] | SMILES
< 150 | 151 to 300 | CC(C)(C)c1cc(NC(=O)Nc2ccc(-c3cn(C4CC4)c4ncnc(N)c34)cn2)on1 [Example 3, 1-(5-(4-amino-7-cyclopropyl-7H-pyrrolo[2,3-d]pyrimidin-5-yl)pyridin-2-yl)-3-(3-(tert-butyl)isoxazol-5-yl)urea]
< 150 | < 150 | CC1(c2cc(NC(=O)Nc3ccc(-c4cn(C5CC5)c5ncnc(N)c45)cc3F)on2)CCC1 [Example 34, 1-(4-(4-amino-7-cyclopropyl-7H-pyrrolo[2,3-d]pyrimidin-5-yl)-2-fluorophenyl)-3-(3-(1-methylcyclobutyl)isoxazol-5-yl)urea]
< 150 | < 150 | Nc1ncnc2c1c(-c1ccc(NC(=O)Nc3cc(C4(C(F)(F)F)CC4)no3)c(F)c1)cn2C1CC1 [Example 5, 1-(4-(4-amino-7-cyclopropyl-7H-pyrrolo[2,3-d]pyrimidin-5-yl)-2-fluorophenyl)-3-(3-(1-(trifluoromethyl)cyclopropyl)isoxazol-5-yl)urea]
151 to 300 | < 150 | CC(C)(O)Cn1cc(-c2ccc(NC(=O)Nc3cc(C4(C(F)(F)F)CC4)no3)c(F)c2)c2c(N)ncnc21 [Example 14, 1-(4-(4-amino-7-(2-hydroxy-2-methylpropyl)-7H-pyrrolo[2,3-d]pyrimidin-5-yl)-2-fluorophenyl)-3-(3-(1-(trifluoromethyl)cyclopropyl)isoxazol-5-yl)urea]
< 150 | < 150 | CC(C)(C)c1cc(NC(=O)Nc2ccc(-c3cn(C4CC4)c4ncnc(N)c34)cc2F)on1 [Example 2, 1-(4-(4-amino-7-cyclopropyl-7H-pyrrolo[2,3-d]pyrimidin-5-yl)-2-fluorophenyl)-3-(3-(tert-butyl)isoxazol-5-yl)urea]
151 to 300 | < 150 | Nc1ncnc2c1c(-c1ccc(NC(=O)Nc3cc(C4(C(F)(F)F)CC4)on3)c(F)c1)cn2C1CC1 [Example 10, 1-(4-(4-amino-7-cyclopropyl-7H-pyrrolo[2,3-d]pyrimidin-5-yl)-2-fluorophenyl)-3-(5-(1-(trifluoromethyl)cyclopropyl)isoxazol-3-yl)urea]
< 150 | < 150 | Nc1ncnc2c1c(-c1ccc(NC(=O)Nc3cc(C4(C(F)(F)F)CC4)no3)nc1)cn2C1CC1 [Example 37, 1-(5-(4-amino-7-cyclopropyl-7H-pyrrolo[2,3-d]pyrimidin-5-yl)pyridin-2-yl)-3-(3-(1-(trifluoromethyl)cyclopropyl)isoxazol-5-yl)urea]
